Entries after “also recorded” stand apart in the source; their conditions may differ.
Assays:
K19 = K19 quantitative immunohistochemistry in organ-cultured human scalp hair follicles; format: cell-based; details: for Keratin 19 immunoreactivity: all concentrations tested
Experimental: (§1) Normal human scalp skin was obtained from 6 women undergoing routine face-lift surgery after informed consent. All experiments were performed according to Helsinki guidelines, with appropriate ethics committee approval.
(§2) Normally pigmented anagen VI hair follicles (HFs) (grey/white HFs were excluded from the study) were microdissected from normal human scalp skin and organ cultured following the Philpott model. Compound A or vehicle was administered once for each change of medium (i.e. every 48 h/72 h).
A previously described protocol was used to investigate K19 expression (Kloepper et al., 2008). Briefly, acetone-fixed cryosections were pre-treated with goat serum (10% in Tris-buffered saline, Dako). The sections were incubated first with primary antibodies against K19 (mouse anti-human: K19-1:10; overnight, at 4° C.; PROGEN, Heidelberg, Germany;) and then with FITC-labeled goat anti-mouse (1:200 in TBS, for 45 min, RT, Jackson ImmunoResearch) immunoglobulins as secondary antibodies. Counterstaining was performed with DAPI (Boehringer Mannheim, Mannheim, Germany). The intensity of this immunostaining was quantified by ImageJ software (National Institutes of Health). The staining intensity of defined reference regions in the HF was measured and compared between control and Compound A-treated groups. The percentage of K19-positive cells in comparison to the total amount of cells in the ORS was calculated.
Statistical analysis was performed using a two-tailed Student's t-test for unpaired samples. For meta-analysis purposes, a total of six assays (each with HFs from a different female individual) were run. […] In order to avoid data distortion by individual experiments, rigid exclusion criteria were defined that allowed to exclude one individual experiment (out of 5-6) per read-out parameter. Since these exclusion criteria differed for each study parameter, different experiments (i.e. one out of 6, and one out of 5 in the case of keratin 19 analysis) were excluded for each assay parameter. The exclusion criteria were: (i) most extreme deviation from the results trend shown by the majority among the 6 experiments, in order to avoid data distortion by outliers (which can be affected e.g. by patient's medication, medical history etc.); and (ii) failure to meet minimal quality criteria.

[1] = tested on: anagen VI hair follicles (HFs); assay: Hair shaft elongation in hair follicle organ culture; format: cell-based, human
Experimental: as §2
(§3) Details regarding tissue specimen origin used in the present example are as described in Example 2 above.
Hair shaft length measurements of HFs were performed on individual HFs using a Zeiss inverted binocular microscope with an eyepiece measuring graticule.
(§4) To evaluate apoptotic cells in colocalization with a proliferation marker Ki-67, a Ki-67/terminal dUTP nick-end labeling (TUNEL) double-staining method was used. Cryostat sections were fixed in paraformaldehyde and ethanol-acetic acid (2:1) and labeled with a digoxigenin-deoxy-UTP (ApopTag fluorescein in situ apoptosis detection kit; Intergen, Purchase, N.Y.) in the presence of terminal deoxynucleotidyl transferase, followed by incubation with a mouse anti-Ki-67 antiserum (1:20 in PBS overnight at 4 C; Dako, Glostrup, Denmark). TUNEL-positive cells were visualized by an antidigoxigenin fluorescein isothiocyanate-conjugated antibody (ApopTag kit), whereas Ki-67 was detected by a rhodamine-labeled goat antimouse antibody (Jackson ImmunoResearch, West Grove, Pa.). Negative controls were performed by omitting terminal deoxynucleotidyltransferase and the Ki-67 antibody. Counterstaining was performed with 4′,6-diamidino-2-phenylindole (DAPI) (Roche Molecular Biochemicals GmbH, Mannheim, Germany). Quantitative immunohistomorphometry was performed; Ki-67-, TUNEL-, or DAPI-positive cells were counted in a previously defined reference region of the HF matrix, and the percentage of Ki-67/TUNEL-positive cells were determined. Statistical analysis was performed using a two-tailed Student's t-test for unpaired samples. […] In order to avoid data distortion by individual experiments, rigid exclusion criteria were defined that allowed to exclude one individual experiment (out of 5-6) per read-out parameter. […]

[2] = tested on: anagen VI hair follicles (HFs); assay: LDH activity in supernatant of hair follicle organ culture (cytotoxicity); format: cell-based, human; details: for LDH activity in the supernatant: 0.1 mM dose, day 6, pooled data
Experimental: as §2, §3
LDH activity in the supernatant can serve as an indicator of cytotoxicity and was measured following the manufacturer's instructions (Cytotoxicity Detection Kit; Roche, Mannheim, Germany). The absorbance of the samples was measured at 490 nm using an ELISA plate-reader.
as §4, with “determined.” for “determined. Statistical analysis was performed using a two-tailed Student's t-test for unpaired samples.”

[3] = tested on: anagen VI hair follicles (HFs); assay: HF cycle staging (anagen/catagen) in hair follicle organ culture; format: cell-based, human
Experimental: as §2, §3
HF cycle staging was carried out according to previously defined morphological criteria, and the percentage of HFs in anagen and early, mid, or late catagen was determined.
as §4

keratin K15 = assay: K15 quantitative immunohistochemistry in organ-cultured human scalp hair follicles; format: cell-based; details: human scalp HF organ culture; for Keratin-15 immunoreactivity: all concentrations tested, pooled data
Experimental: as §1, §2
To investigate keratin K15 expression, the tyramide signal amplification method was used as previously described (Kloepper et al., 2008). Briefly, acetone fixed cryosections were washed three times for 5 min using TNT (Tris-HCL NaCl Tween) buffer (0.1 mol/1 Tris-HCl, pH 7.5; containing 0.15 mol/1 NaCl and 0.05% Tween 20). Next, horseradish peroxidase was blocked by washing with 3% H2O2 in phosphate-buffered saline (PBS) for 15 min. Preincubation was performed with the incubation of avidin and biotin for 15 min and 5% goat normal serum in TNT for 30 min with washing steps in between. Mouse anti-human K15 (clone LHK15, Chemicon, Billerica, USA) was diluted in TNT and incubated overnight at 4° C. followed by a biotinylated secondary antibody goat anti-mouse (1:200 in TNT) for 45 min at RT. Next, streptavidin horseradish peroxidase (TSA kit; Perkin-Elmer, Boston, Mass., USA) was administered (1:100 in TNT) for 30 min at RT. […] The intensity of the immunostaining was quantified by ImageJ software (National Institutes of Health). The staining intensity of defined reference regions in the HF was measured and compared between control and N Compound A-treated groups. The percentage of K15-positive cells in comparison to the total amount of cells in the ORS was calculated.
Statistical analysis was performed using a two-tailed Student's t-test for unpaired samples. […] In order to avoid data distortion by individual experiments, rigid exclusion criteria were defined that allowed to exclude one individual experiment (out of 5-6) per read-out parameter. […]

[4] = listed as N-acetyl-(R)-(−)-3-(4-aminophenyl)-2-methoxypropionic acid

With `CO[C@H](Cc1ccc(NC(C)=O)cc1)C(=O)O` [Compound A, N-acetyl-(R)-(−)-3-(4-aminophenyl)-2-methoxypropionic acid] the “Keratin 19 immunoreactivity” value (K19; human scalp HF organ culture, pooled data) was “strongly stimulated”, the “Keratin 19 immunoreactivity” value (K19; human scalp HF organ culture, pooled data, listed as N-acetyl-(R)-(−)-3-(4-aminophenyl)-2-methoxypropionic acid) was “stimulation” and the “number of K19-positive cells relative to control” value (K19; human scalp HF organ culture) was “stimulating effect”. For the same compound, the “numbers of K19 positive cells” value (K19; low and high concentrations, pooled data) was “increased numbers”, the hair shaft elongation ([1]; high dose (1 mM), day 6, pooled data) was “slightly, but significantly, inhibited; also recorded: inhibits hair shaft elongation” and the hair shaft elongation ([1]; high dose (1 mM), day 6, pooled data, listed as N-acetyl-(R)-(−)-3-(4-aminophenyl)-2-methoxypropionic acid) was “inhibition”. For the same compound, the hair shaft elongation ([1]; lower concentrations (below 1 mM)) was “did not have an effect”, the “LDH activity in the supernatant” value [2] was “slight increase” and the “LDH activity in the supernatant” value [2, 4] was “increase”. For the same compound, the “HF toxicity under assay conditions” value ([2]; concluded from LDH activity) was “very low, if any”, the “hair cycle effect (catagen)” value ([3]; all concentrations, pooled data) was “induced catagen; also recorded: catagen-inducing effect” and the “hair cycle effect (catagen)” value ([3]; analysis of the individual 5 experiments, percentage of each hair cycle stage, n=5) was “strong trend towards induction of catagen”. For the same compound, the “hair cycle effect (catagen)” value ([3]; analysis of the individual 5 experiments, percentage of each hair cycle stage, n=5, listed as N-acetyl-(R)-(−)-3-(4-aminophenyl)-2-methoxypropionic acid) was “trend toward catagen”, the Keratin-15 immunoreactivity (keratin K15) was “strongly stimulated” and the Keratin-15 immunoreactivity (keratin K15; [4]) was “stimulation”. For the same compound, the “number of K15-positive cells” value (keratin K15) was “did not increase”.

From US20150265514A1, “METHODS OF INHIBITING HAIR GROWTH” (NOGRA PHARMA LIMITED, priority 2012, published 2015)
